Test results taken from ChEMBL document CHEMBL6078680, “Improving the Stability and Anti-Infective Activity of Sea Turtle AMPs Using Multiple Structural Modification Strategies” (J Med Chem, 2024).
Activity calls are given as the source filed them. The calls are words filed in the database; no cut-off is given here. Positions of bridges follow the written chain, without caps; N, C: chain ends. Non-standard residues stand in square brackets, D forms with d. Residues, ends and D or L forms follow the SMILES beside them. hArg = N=C(N)NCCCC[C@H](N)C(=O)O

Assays:
[1] = tested on: Peritoneal macrophage; test: Antiinflammatory activity in mouse Peritoneal macrophage cells assessed as inhibition of LPS-induced TNF-alpha production at 20 microg/ml incubated for 6 hrs by ELISA analysis; format: functional, cell-based; settings: dose 20.0 µg/ml
[2] = target: T1, Trypsin (Homo sapiens, UniProt P07477+P07478+P35030); test: Stability of compound assessed as trypsin (unknown origin) mediated drug degradation […] measured at 24 hrs by RP-HPLC analysis; format: ADME, protein assay; settings: read-out: Activity
[3] = tested on: Staphylococcus aureus; test: Antimicrobial activity against Staphylococcus aureus CMCC 26003 at 5 times MIC measured at 180 mins; format: functional, organism-based
[4] = tested on: Staphylococcus aureus; test: Antipersister-activity against Staphylococcus aureus CMCC 26003 assessed as elimination of persister cells at 50 times MIC preincubated adherent persistent cells with colistin incubation for 24 hrs; format: functional
[5] = tested on: Staphylococcus aureus; test: Antibiofilm activity against Staphylococcus aureus CMCC 26003 assessed as biofilm eradication at 0.5 to 2 times MIC incubated for 24 hrs by crystal violet staining based analysis; format: functional
[6] = tested on: Peritoneal macrophage; test: Antiinflammatory activity in mouse Peritoneal macrophage cells assessed as inhibition of LPS-induced IL-6 production at 20 microg/ml incubated for 6 hrs by ELISA analysis; format: functional, cell-based; settings: dose 20.0 µg/ml
[7] = Hemolytic activity at human Erythrocyte assessed as hemolysis at 100 microg/ml; format: toxicity, cell-based; settings: erythrocytes, at 100 µg/mL, read-out: Activity
[8] = tested on: Acinetobacter baumannii; test: Antibiofilm activity against Acinetobacter baumannii ATCC 19606 assessed as inhibition of biofilm formation at 0.5 times MIC incubated for 48 hrs by crystal violet staining based analysis; format: functional
[9] = Acute toxicity in BALB/c mouse assessed as effect on BUN level at 10 mg/kg, iv measured for 24 hrs; format: organism-based; settings: in vivo
[10] = tested on: HaCaT; test: Cytotoxicity against human HaCaT cells assessed as survival rate at 100 microg/ml; format: functional; settings: read-out: Survival
[11] = tested on: Peritoneal macrophage; test: Cytotoxicity against mouse Peritoneal macrophage cells assessed as survival rate at 100 microg/ml; format: functional; settings: read-out: Survival
[12] = tested on: Staphylococcus aureus; test: Antimicrobial activity against Staphylococcus aureus CMCC 26003 measured at 8 hrs in presence of mouse serum; format: functional, organism-based
[13] = tested on: Escherichia coli; test: Antimicrobial activity against Escherichia coli ATCC 25922 measured at 8 hrs in presence of mouse serum; format: functional, organism-based
[14] = target: T1, Trypsin; test: Stability of compound assessed as trypsin (unknown origin) mediated drug degradation […] measured after 24 hrs by RP-HPLC analysis; format: ADME, protein assay; settings: read-out: Activity

Compound	Activity [1]	metabolised at 24 h [2] [%]	Activity [3]	Activity [4] [%]	Activity [5] [%]	Activity [6]	hemolysis at 100 microg/ml [7] [%]	inhibition (INH) [8] [%]	Activity [9]	viability at 100 µg/mL [10] [%]	viability at 100 µg/mL [11] [%]	Activity [12]	Activity [13]	metabolised at 24 h [14] [%]
CC[C@@H](C)[C@@H](NC(=O)[C@@H](CCCNC(=N)N)NC(=O)[C@@H](CO)NC(=O)[C@@H](Cc1c[nH]cn1)NC(=O)[C@@H](CCCNC(=N)N)NC(=O)[C@@H](CC(C)C)NC(=O)[C@H](NC(=O)[C@@H](CCCNC(=N)N)NC(=O)CNC(=O)[C@@H](CC(C)C)NC(=O)[C@@H](CCC(N)=O)NC(=O)[C@@H](CCCCN)NC(=O)[C@@H](CCCNC(=N)N)NC(=O)[C@H](NC(=O)[C@@H](CCCCN)NC(=O)[C@@H](CCCCN)NC(=O)[C@H](N)Cc1ccccc1)C(C)C)C(C)C)C(=O)N[C@@H](C(=O)N[C@@H](C(=O)NCC(=O)NCC(=O)N[C@H](CCCNC(=N)N)C(=O)N[C@H](CCSC)C(=O)N[C@H](CCCNC(=N)N)C(=O)N[C@H](Cc1ccccc1)C(=O)O)C(C)C)[C@H](C)O	Active	< 60	inactive	50	20	Active	< 5	10	–	–	–	–	–	–
CC[C@H](C)[C@H](NC(=O)[C@H](CCCNC(=N)N)NC(=O)[C@H](CO)NC(=O)[C@H](Cc1c[nH]cn1)NC(=O)[C@H](CCCNC(=N)N)NC(=O)[C@@H]1CSSC[C@H](NC(=O)[C@H](CCCCN)NC(=O)[C@@H](N)Cc2ccccc2)C(=O)N[C@@H](CCCCN)C(=O)N[C@@H](C(C)C)C(=O)N[C@@H](CCCNC(=N)N)C(=O)N[C@@H](CCCCN)C(=O)N[C@@H](CCC(N)=O)C(=O)N[C@@H](CC(C)C)C(=O)NCC(=O)N[C@@H](CCCNC(=N)N)C(=O)N[C@@H](C(C)C)C(=O)N[C@@H](CC(C)C)C(=O)N1)C(=O)N[C@H](C(=O)N[C@H](C(=O)NCC(=O)NCC(=O)N[C@@H](CCCNC(=N)N)C(=O)N[C@@H](CCSC)C(=O)N[C@@H](CCCNC(=N)N)C(=O)N[C@@H](Cc1ccccc1)C(=O)O)C(C)C)[C@@H](C)O (H-FKCKVRKQLGRVLCRHSRITVGGRMRF-OH; disulfide 3-14)	Active	–	inactive	–	–	Active	< 5	–	Non-toxic	> 80	> 80	inactive	–	–
CC[C@H](C)[C@@H]1NC(=O)[C@H](CCCNC(=N)N)NC(=O)[C@H](CO)NC(=O)[C@@H](NC(=O)[C@H](Cc2c[nH]cn2)NC(=O)[C@H](CCCNC(=N)N)NC(=O)[C@H](CC(C)C)NC(=O)[C@@H](NC(=O)[C@H](CCCNC(=N)N)NC(=O)CNC(=O)[C@H](CC(C)C)NC(=O)[C@H](CCC(N)=O)NC(=O)[C@H](CCCCN)NC(=O)[C@H](CCCNC(=N)N)NC(=O)[C@@H](NC(=O)[C@H](CCCCN)NC(=O)[C@H](CCCCN)NC(=O)[C@@H](N)Cc2ccccc2)C(C)C)C(C)C)CSSC[C@@H](C(=O)O)NC(=O)[C@H](Cc2ccccc2)NC(=O)[C@H](CCCNC(=N)N)NC(=O)[C@H](CCSC)NC(=O)[C@H](CCCNC(=N)N)NC(=O)CNC(=O)CNC(=O)[C@H](C(C)C)NC(=O)[C@H]([C@@H](C)O)NC1=O (H-FKKVRKQLGRVLRHCSRITVGGRMRFC-OH; disulfide 15-27)	Active	–	inactive	–	–	Active	< 5	–	–	> 80	> 80	inactive	inactive	–
CC[C@H](C)[C@H](NC(=O)[C@H](CCCCNC(=N)N)NC(=O)[C@H](CO)NC(=O)[C@H](Cc1c[nH]cn1)NC(=O)[C@H](CCCCNC(=N)N)NC(=O)[C@H](CC(C)C)NC(=O)[C@@H](NC(=O)[C@H](CCCCNC(=N)N)NC(=O)CNC(=O)[C@H](CC(C)C)NC(=O)[C@H](CCC(N)=O)NC(=O)[C@H](CCCCNC(=N)N)NC(=O)[C@H](CCCCNC(=N)N)NC(=O)[C@@H](NC(=O)[C@H](CCCCNC(=N)N)NC(=O)[C@H](CCCCNC(=N)N)NC(=O)[C@@H](N)Cc1ccccc1)C(C)C)C(C)C)C(=O)N[C@H](C(=O)N[C@H](C(=O)NCC(=O)NCC(=O)N[C@@H](CCCCNC(=N)N)C(=O)N[C@@H](CCSC)C(=O)N[C@@H](CCCCNC(=N)N)C(=O)N[C@@H](Cc1ccccc1)C(=O)O)C(C)C)[C@@H](C)O (H-F[hArg][hArg]V[hArg][hArg]QLG[hArg]VL[hArg]HS[hArg]ITVGG[hArg]M[hArg]F-OH)	Active	–	inactive	–	–	Active	< 5	–	–	–	–	–	–	~20
